Assay results from patent publication US11214803B2, “Modulators of YAP1 expression” (Ionis Pharmaceuticals, Inc., priority 2019, dated 2022).
Strand notation (5' to 3'): a small letter for the sugar, then the base; units joined by * are phosphorothioate-linked, units joined directly phosphodiester-linked; [ ] holds rarer units or linkages, { } end groups; capitals alone tell only the bases. k = constrained ethyl (cEt); [5mC] = 5-methylcytosine; d = 2'-deoxy (DNA)

How the values were obtained:
SCC-9 cells = assay: Cell proliferation assay in SCC-9 cells, CellTiter-Glo (Example 40); format: cell-based, human; conditions: free uptake, approximately 144 hours
Description: Modified oligonucleotides described in the studies above were tested at various doses in tongue squamous cell carcinoma cell line SCC-9. A control oligonucleotide 792169, described herein above, was also tested.
(§1) Cultured SCC-9 cells at a density of 1000 cells/well were treated using free uptake with modified oligonucleotides diluted to concentrations described in the tables below. After approximately 144 hours, cell proliferation was measured using the luminescent cell viability CellTiter-Glo® 2.0 Assay (Promega). Results are presented in the tables below as percent control of the amount of luminescence in samples treated with modified oligonucleotides relative to untreated control cells (% UTC).

CAL27 cells = assay: Cell proliferation assay in CAL27 cells, CellTiter-Glo (Example 37); format: cell-based, human; conditions: free uptake, approximately 144 hours
Description: Modified oligonucleotides described in the studies above were tested at various doses in tongue squamous cell carcinoma line CAL27. A control oligonucleotide 792169, described herein above, was also tested.
as §1, with “CAL27” for “SCC-9”

Yap1 mRNA [1] = assay: Yap1 mRNA in SNU-1066 cells, RNA analysis (Example 44); format: cell-based, human; conditions: free uptake, approximately 48 hours
Description: (§2) Modified oligonucleotides described in the studies above were tested at various doses in laryngeal squamous cell carcinoma line SNU-1066. A control oligonucleotide 792169, described herein above, was also tested.
(§3) Cultured SNU-1066 cells at a density of 5000 cells per well were treated using free uptake with modified oligonucleotides diluted to concentrations described in the tables below. After approximately 48 hours, Yap1 mRNA levels were measured as previously described using the Human Yap1 primer-probe set RTS4814. Yap1 mRNA levels were normalized to actin-beta content, as measured by primer probe set RTS5002. Results are presented in the tables below as percent control of the amount of Yap1 mRNA relative to untreated control cells (% UTC).

SCC-15 cells = assay: Cell proliferation assay in SCC-15 cells, CellTiter-Glo (Example 41); format: cell-based, human; conditions: free uptake, approximately 144 hours
Description: Modified oligonucleotides described in the studies above were tested at various doses in tongue squamous cell carcinoma cell line SCC-15. A control oligonucleotide 792169, described herein above, was also tested.
as §1, with “SCC-15” for “SCC-9”

SNU-1066 cells = assay: Cell proliferation assay in SNU-1066 cells, CellTiter-Glo (Example 44); format: cell-based, human; conditions: free uptake, approximately 144 hours
Description: as §2
as §1, with “SNU-1066” for “SCC-9”

SCC-25 cells = assay: Cell proliferation assay in SCC-25 cells, CellTiter-Glo (Example 42); format: cell-based, human; conditions: free uptake, approximately 144 hours
Description: Modified oligonucleotides described in the studies above were tested at various doses in tongue squamous cell carcinoma cell line SCC-25. A control oligonucleotide 792169, described herein above, was also tested.
as §1, with “SCC-25” for “SCC-9”

Yap1 mRNA [2] = assay: Yap1 mRNA in Detroit-562 cells, RNA analysis (Example 38); format: cell-based, human; conditions: free uptake, approximately 48 hours
Description: Modified oligonucleotides described in the studies above were tested at various doses in pharynx carcinoma cell line Detroit-562. A control oligonucleotide 792169, described herein above, was also tested.
as §3, with “Detroit-562” for “SNU-1066”

[3] = Tolerability in CD-1 mice, body and organ weights (Example 19); format: in vivo; conditions: male CD-1 mice, 50 mg/kg s.c. twice a week for four weeks (8 treatments), end of study (day 26)
Description: Groups of four male CD-1 mice at 4-6 weeks of age (obtained from Charles River) were injected subcutaneously twice a week for four weeks (for a total of 8 treatments) with 50 mg/kg of modified oligonucleotides. One group of male CD-1 mice was injected with PBS. Mice were euthanized on day 26 post start of treatment (24 hrs following the final administration).
Body weights of CD-1 mice were measured at the end of the study, and the average body weight for each group is presented in the table below. Modified oligonucleotides that caused any changes in organ weights outside the expected range for modified oligonucleotides were excluded from further studies.

| Substance | Antiproliferative effect (cell proliferation, luminescence) (SCC-9 cells; 0.04 μM) [% UTC] | Antiproliferative effect (cell proliferation, luminescence) (SCC-9 cells; 0.2 μM) [% UTC] | Antiproliferative effect (cell proliferation, luminescence) (SCC-9 cells; 1 μM) [% UTC] | Antiproliferative effect (cell proliferation, luminescence) (SCC-9 cells; 5 μM) [% UTC] | Antiproliferative effect (cell proliferation, luminescence) (CAL27 cells; 0.08 μM) [% UTC] | Antiproliferative effect (cell proliferation, luminescence) (CAL27 cells; 0.4 μM) [% UTC] | Antiproliferative effect (cell proliferation, luminescence) (CAL27 cells; 2 μM) [% UTC] | Antiproliferative effect (cell proliferation, luminescence) (CAL27 cells; 10 μM) [% UTC] | human Yap1 mRNA expression (Yap1 mRNA [1]; 0.04 μM) [% UTC] | human Yap1 mRNA expression (Yap1 mRNA [1]; 0.2 μM) [% UTC] | human Yap1 mRNA expression (Yap1 mRNA [1]; 1 μM) [% UTC] | human Yap1 mRNA expression (Yap1 mRNA [1]; 5 μM) [% UTC] | Antiproliferative effect (cell proliferation, luminescence) (SCC-15 cells; 0.04 μM) [% UTC] | Antiproliferative effect (cell proliferation, luminescence) (SCC-15 cells; 0.2 μM) [% UTC] | Antiproliferative effect (cell proliferation, luminescence) (SCC-15 cells; 1 μM) [% UTC] | Antiproliferative effect (cell proliferation, luminescence) (SCC-15 cells; 5 μM) [% UTC] | Antiproliferative effect (cell proliferation, luminescence) (SNU-1066 cells; 0.04 μM) [% UTC] | Antiproliferative effect (cell proliferation, luminescence) (SNU-1066 cells; 0.2 μM) [% UTC] | Antiproliferative effect (cell proliferation, luminescence) (SNU-1066 cells; 1 μM) [% UTC] | Antiproliferative effect (cell proliferation, luminescence) (SNU-1066 cells; 5 μM) [% UTC] | other results |
| --- | --- | --- | --- | --- | --- | --- | --- | --- | --- | --- | --- | --- | --- | --- | --- | --- | --- | --- | --- | --- | --- |
| 715487 (kA*kT*kT*dA*d[5mC]*dT*dT*d[5mC]*dA*dT*dA*dG*d[5mC]*kT*kT*kA) [compound 715487] | 97 | 73 | 51 | 34 | 95 | 85 | 67 | 33 | 77 | 49 | 22 | 7 | 87 | 66 | 47 | 28 | 97 | 86 | 72 | 47 | Antiproliferative effect (cell proliferation, luminescence) (SCC-25 cells; 0.08 μM): 82 % UTC; Antiproliferative effect (cell proliferation, luminescence) (SCC-25 cells; 0.4 μM): 48 % UTC; Antiproliferative effect (cell proliferation, luminescence) (SCC-25 cells; 2 μM): 25 % UTC; Antiproliferative effect (cell proliferation, luminescence) (SCC-25 cells; 10 μM): 15 % UTC; human Yap1 mRNA expression (Yap1 mRNA [2]; 0.04 μM): 77 % UTC; human Yap1 mRNA expression (Yap1 mRNA [2]; 0.2 μM): 29 % UTC; human Yap1 mRNA expression (Yap1 mRNA [2]; 1 μM): 10 % UTC; human Yap1 mRNA expression (Yap1 mRNA [2]; 5 μM): 5 % UTC |
| 1198440 (AAGTGTATGTCAGAAG; cEt, 2'-MOE, 5-methylcytosine, phosphorothioate modifications, further chemistry not given here) [compound 1198440] | 88 | 46 | 35 | 31 | 86 | 85 | 83 | 51 | 70 | 28 | 7 | 2 | 72 | 54 | 42 | 32 | 89 | 66 | 58 | 43 | Kidney weight [3]: 0.46 g; Liver weight [3]: 1.97 g; Spleen weight [3]: 0.18 g; body weight [3]: 35 g; Antiproliferative effect (cell proliferation, luminescence) (SCC-25 cells; 0.08 μM): 56 % UTC; Antiproliferative effect (cell proliferation, luminescence) (SCC-25 cells; 0.4 μM): 27 % UTC; Antiproliferative effect (cell proliferation, luminescence) (SCC-25 cells; 2 μM): 20 % UTC; Antiproliferative effect (cell proliferation, luminescence) (SCC-25 cells; 10 μM): 16 % UTC; human Yap1 mRNA expression (Yap1 mRNA [2]; 0.04 μM): 32 % UTC; human Yap1 mRNA expression (Yap1 mRNA [2]; 0.2 μM): 8 % UTC; human Yap1 mRNA expression (Yap1 mRNA [2]; 1 μM): 3 % UTC; human Yap1 mRNA expression (Yap1 mRNA [2]; 5 μM): 2 % UTC |
| 1198872 (TGTATGTCAGAAGAGT; chemically modified gapmer, further chemistry not given here) [compound 1198872] |  |  |  |  |  |  |  |  |  |  |  |  |  |  |  |  |  |  |  |  | Kidney weight [3]: 0.40 g; Liver weight [3]: 1.84 g; Spleen weight [3]: 0.16 g; body weight [3]: 34 g |
| 1198439 (AGTGTATGTCAGAAGA; sugar, 5-methylcytosine, phosphorothioate modifications, further chemistry not given here) [compound 1198439] |  |  |  |  |  |  |  |  |  |  |  |  |  |  |  |  |  |  |  |  | Kidney weight [3]: 0.51 g; Liver weight [3]: 2.03 g; Spleen weight [3]: 0.25 g; body weight [3]: 36 g |
| CGCCGATAAGGTACAC (cEt gapmer, phosphorothioate backbone, further chemistry not given here) [ION 792169, reference compound] | 104 | 111 | 102 | 94 | 96 | 102 | 103 | 90 | 91 | 94 | 93 | 98 | 93 | 92 | 89 | 71 | 100 | 104 | 102 | 96 | Antiproliferative effect (cell proliferation, luminescence) (SCC-25 cells; 0.08 μM): 97 % UTC; Antiproliferative effect (cell proliferation, luminescence) (SCC-25 cells; 0.4 μM): 101 % UTC; Antiproliferative effect (cell proliferation, luminescence) (SCC-25 cells; 2 μM): 96 % UTC; Antiproliferative effect (cell proliferation, luminescence) (SCC-25 cells; 10 μM): 92 % UTC; human Yap1 mRNA expression (Yap1 mRNA [2]; 0.04 μM): 102 % UTC; human Yap1 mRNA expression (Yap1 mRNA [2]; 0.2 μM): 102 % UTC; human Yap1 mRNA expression (Yap1 mRNA [2]; 1 μM): 94 % UTC; human Yap1 mRNA expression (Yap1 mRNA [2]; 5 μM): 99 % UTC |
